# Data: US20120122870A1, “Treatment Of Ischemia-Reperfusion Injury” (MUSC FOUNDATION FOR RESEARCH DEVELOPMENT, priority 2009, published 2012)
# Test system: endogenous SK activity in MDA-MB-231 cells
# Test: Cellular S1P production (endogenous SK activity) in MDA-MB-231 cells
# Assay type: cell-based
# Conditions: Homo sapiens, MDA-MB-231, MDA-MB-231 cells incubated with 20 μg/mL of compound; percentage of S1P production inhibited
# Method: Human SK was incubated with 6 μg/mL of the indicated compounds, and then assayed for activity as described above. Values in the column labeled “Recombinant SK (% inhibition)” represent the percentage of SK activity that was inhibited. MDA-MB-231 cells were incubated with 20 μg/mL of the indicated compounds and then assayed for endogenous SK activity as indicated above. Values in the column labeled “Cellular S1P (% inhibition)” represent the percentage of S1P production that was inhibited. Additionally, MDA-MB-231 cells were treated with varying concentration of certain compounds and the amount of S1P produced by the cells was determined. Values in the column labeled “Cellular S1P IC50 (μM)” represent the concentration of compound required to inhibit the production of S1P by 50%. ND=not determined.
row,Compound,inhibition at 20 µg/mL [%]
1,"CCCC(=O)Oc1ccc(C=CC(=O)Nc2nc(-c3ccc(Cl)cc3)cs2)cc1 [B15, Butyric acid 4-{2-[4-(4-chloro-phenyl)-thiazol-2-ylcarbamoyl]-vinyl}-phenyl ester]",23
2,"CCCC(=O)Oc1ccc(CCC(=O)Nc2nc(-c3ccc(Cl)cc3)cs2)cc1OC(=O)CCC [B26, Butyric acid 2-butyryloxy-4-{2-[4-(4-chloro-phenyl)-thiazol-2-ylcarbamoyl]-ethyl}-phenyl ester]",79
3,"O=C(Nc1ccc(O)cc1)c1cccc(-c2ccc(Cl)cc2)c1 [B83, 4′-Chloro-biphenyl-3-carboxylic acid (4-hydroxy-phenyl)-amide]",55
4,"CCCC(=O)Oc1ccc(C(=O)Nc2nc(-c3ccc(Cl)cc3)cs2)cc1OC [B24, Butyric acid 4-[4-(4-chloro-phenyl)-thiazol-2-ylcarbamoyl]-2-methoxy-phenyl ester]",69
5,"CN1CCN(NC(=O)c2nc(-c3ccc(Cl)cc3)cs2)CC1 [B46, 4-(4-Chloro-phenyl)-thiazole-2-carboxylic acid (4-methyl-piperazin-1-yl)-amide]",0
6,"O=C(Nc1nc2cc(Cl)ccc2o1)c1cccc(F)c1 [B97, N-(5-Chloro-benzooxazol-2-yl)-3-fluoro-benzamide]",38
7,"CCCC(=O)Oc1ccc(C=CC(=O)Nc2nc(-c3ccc(Cl)cc3)cs2)cc1OC(=O)CCC [B11, Butyric acid 2-butyryloxy-5-{2-[4-(4-chloro-phenyl)-thiazol-2-ylcarbamoyl]-vinyl}-phenyl ester]",55
8,"CCCC(=O)Oc1ccc(C(=O)Nc2nc(-c3ccc(Cl)cc3)cs2)cc1OC(=O)CCC [B25, Butyric acid 2-butyryloxy-4-[4-(4-chloro-phenyl)-thiazol-2-ylcarbamoyl]-phenyl ester]",79
9,"CCCCCCCCC=CCCCCCCCC(=O)Nc1nc(-c2ccc(Cl)cc2)cs1 [B6, Octadec-9-enoic acid [4-(4-chloro-phenyl)-thiazol-2-yl]-amide]",21
10,"CCCC(=O)Oc1ccc(C=CC(=O)Nc2nc(-c3ccc(F)cc3)cs2)cc1OC [B28, Butyric acid 4-{2-[4-(4-fluoro-phenyl)-thiazol-2-ylcarbamoyl]-vinyl}-2-methoxy-phenyl ester]",65
11,"O=C(NCc1cccc(OC(F)(F)F)c1)c1nc(-c2ccc(Cl)cc2)cs1 [B43, 4-(4-Chloro-phenyl)-thiazole-2-carboxylic acid 3-trifluoromethoxy-benzylamide]",0
12,"C=CCCCCCCCCC(=O)Nc1nc(-c2ccc(Cl)cc2)cs1 [B4, Undec-10-enoic acid [4-(4-chloro-phenyl)-thiazol-2-yl]-amide]",39
13,"Clc1ccc(-c2csc(N(Cc3ccccc3)Cc3ccccc3)n2)cc1 [B72, Dibenzyl-[4-(4-chloro-phenyl)-thiazol-2-yl]-amine]",27
14,"CCCC(=O)Oc1cc(C=CC(=O)Nc2nc(-c3ccc(Cl)cc3)cs2)ccc1OC [B18, Butyric acid 5-{2-[4-(4-chloro-phenyl)-thiazol-2-ylcarbamoyl]-vinyl}-2-methoxy-phenyl ester]",65
15,"O=C(C=Cc1ccccc1)Nc1nc(-c2ccc(Cl)cc2)cs1 [B7, N-[4-(4-Chloro-phenyl)-thiazol-2-yl]-3-phenyl-acrylamide]",21
16,"COc1cc(C=CC(=O)Nc2nc(-c3cccc(Cl)c3)cs2)ccc1O [B9, N-[4-(3-Chloro-phenyl)-thiazol-2-yl]-3-(4-hydroxy-3-methoxy-phenyl)-acrylamide]",32
17,"CN1CCCC1CCNC(=O)c1nc(-c2ccc(Cl)cc2)cs1 (stereo not drawn) [B45, 4-(4-Chloro-phenyl)-thiazole-2-carboxylic acid [2-(1-methyl-pyrrolidin-2-yl)-ethyl]-amide]",0
18,"O=C(NCc1ccc(F)c(Cl)c1)c1nc(-c2ccc(Cl)cc2)cs1 [B39, 4-(4-Chloro-phenyl)-thiazole-2-carboxylic acid 3-chloro-4-fluoro-benzylamide]",0
